Experiments:
opioid receptors = conditions: Wikler, A., Int. J. of the Addictions 12(7) 869, 1977; cited from earlier work
chronic constipation [1] = assay: Example II: stool weight of a second patient with chronic constipation given naloxone; format: in vivo, human
Text: A second patient with a history of over twenty years of chronic constipation, intractable to laxatives, who for the past several months was only relieved by enema treatment was admitted to the hospital and placed on a high residue diet.

chronic constipation [2] = assay: Table 1: five inpatient and outpatient studies on Patient Number 1 (chronic constipation): fecal weight, fecal fat, symptoms; format: in vivo, human
Text: The tables set forth the significant details and results of a number of studies conducted with different patients suffering from various forms of intestinal dysmotility. […] The first study was of two days duration. The lengths of subsequent studies are as indicated.
The reports Tables 1 to 5 are for patients with chronic constipation. Those in Tables 6, 7 and 8 are for patients with irritable bowel syndrome.

[3] = Adverse effects by clinical examination, blood and urine analysis in Examples I and II; format: in vivo, human
Text: Samples of the patient's blood and urine were collected each day and subjected to analysis.

chronic constipation [4] = assay: Example I: stool weight of a patient with chronic constipation given naloxone (single blind, placebo first); format: in vivo, human
Method: A person with a history of chronic constipation for a period of over twenty years, requiring daily use of large doses of laxatives plus frequent enemas, was admitted to the research hospital on day one at approximately 4:00 p.m. They were given a standard laxative regimen documented to be inadequate to effect a spontaneous bowel movement, and placed on a high residue diet.
During the first 24 hours they were treated with a placebo (Infusion A) according to the following schedule:
The total dosage per day was 21.6 mg.
During the five days that the patient was under hospital care the stools were collected and weighed. The results were as follows:
The experiment was conducted as a single blind. The patient was not aware of whether they were receiving a placebo or the active agent.

[5] = Day 1, 29.2 mg naloxone, intravenous
[6] = Patient Number 1, Study #1 (inpatient), i.v., Study Day 2, total 24 hour dose 29.2 mg
[7] = Patient Number 1, Study #2 (inpatient), p.o., Study Day 1, total 24 hour dose 21.6 mg
[8] = Patient Number 1, Study #2 (inpatient), p.o., Study Day 2, total 24 hour dose 21.6 mg
[9] = Patient Number 1, Study #2 (inpatient), p.o., Study Day 3, total 24 hour dose 21.6 mg
[10] = Day 2, naloxone intravenous (29.2 mg per Table 1)
[11] = Day 3, naloxone oral 21.6 mg per day
[12] = Day 4, naloxone oral 21.6 mg per day
[13] = Day 5, naloxone oral 21.6 mg per day

## O=C1CC[C@@]2(O)[C@H]3Cc4ccc(O)c5c4[C@@]2(CCN3CC2CC2)[C@H]1O5 [Naltrexone, N-cyclopropylmethyl-14-hydroxydihydronormorphinone]
Opioid receptors
  agonistic activity: slight agonistic activity

## C=CCN1CC[C@]23c4c5ccc(O)c4O[C@H]2C(=O)CC[C@@]3(O)[C@H]1C5 [naloxone, N-allyl-14-hydroxydihydronormorphinone]
Chronic constipation [1]; [5]
  STOOL WEIGHT GRAMS Wet Weight: 84 GRAMS
  Stool Weight Grams Dry Weight: 18.5 GRAMS
Chronic constipation [1]; Day 3, 14.4 mg naloxone, oral
  STOOL WEIGHT GRAMS Wet Weight: 35 GRAMS
  Stool Weight Grams Dry Weight: 8.2 GRAMS
Chronic constipation [1]; Day 4, 21.6 mg naloxone, oral
  STOOL WEIGHT GRAMS Wet Weight: 125 GRAMS
  Stool Weight Grams Dry Weight: 66.4 GRAMS
Chronic constipation [1]; Day 5, 21.6 mg naloxone, oral
  STOOL WEIGHT GRAMS Wet Weight: 230 GRAMS
  Stool Weight Grams Dry Weight: 82.4 GRAMS
Chronic constipation [1]; Day 6, 7.2 mg naloxone, oral
  STOOL WEIGHT GRAMS Wet Weight: 34 GRAMS
Chronic constipation [2]; [6]
  Fecal Dry Wt. (gm): 52 gm
  Fecal Wet Wt. (gm): 649 gm
  Symptoms, Signs, Comments: Marked improvement
Chronic constipation [2]; [7]
  Fecal Dry Wt. (gm): 77 gm
  Fecal Wet Wt. (gm): 985 gm
  Symptoms, Signs, Comments: Marked improvement
Chronic constipation [2]; [8]
  Fecal Dry Wt. (gm): 77 gm
  Fecal Wet Wt. (gm): 997 gm
  Symptoms, Signs, Comments: Marked improvement
Chronic constipation [2]; [9]
  Fecal Dry Wt. (gm): 65 gm
  Fecal Wet Wt. (gm): 806 gm
  Symptoms, Signs, Comments: Marked improvement
Chronic constipation [2]; Patient Number 1, Study #3 (outpatient), p.o., Study Day 1, total 24 hour dose 21.6 mg
  Symptoms, Signs, Comments: Average day
Chronic constipation [2]; Patient Number 1, Study #3 (outpatient), p.o., Study Day 2, total 24 hour dose 21.6 mg
  Symptoms, Signs, Comments: Better than average day
Chronic constipation [2]; Patient Number 1, Study #3 (outpatient), p.o., Study Day 3, total 24 hour dose 21.6 mg
  Symptoms, Signs, Comments: Much better than average day
Chronic constipation [2]; Patient Number 1, Study #4 (inpatient), i.v., Study Day 2, total 24 hour dose 29.2 mg
  Fecal Wet Wt. (gm): 775 gm
Chronic constipation [2]; Patient Number 1, Study #4 (inpatient), i.v., Study Day 3, total 24 hour dose 29.2 mg
  Fecal Wet Wt. (gm): 859 gm
Chronic constipation [2]; Patient Number 1, Study #5 (outpatient), route not given, Study Day 1, total 24 hour dose 21.6 mg
  Symptoms, Signs, Comments: Much better than average
Chronic constipation [2]; Patient Number 1, Study #5 (outpatient), route not given, Study Day 2, total 24 hour dose 21.6 mg
  Symptoms, Signs, Comments: Much better than average
Chronic constipation [2]; Patient Number 1, Study #5 (outpatient), route not given, Study Day 3, total 24 hour dose 21.6 mg
  Symptoms, Signs, Comments: Much better than average
[3]; Example I patient, naloxone intravenous then oral 21.6 mg per day
  adverse effects (analysis of blood and urine collected each day): No adverse effects
[3]; Example II patient, naloxone 29.2 mg intravenous, then 7.2 to 21.6 mg oral
  adverse effects (clinical examinations, blood or urine analysis): No adverse effects
Chronic constipation [4]; [10]
  STOOL WEIGHT GRAMS Wet Weight: 649 Grams
  Stool Weight Grams Dry Weight: 52 Grams
Chronic constipation [4]; [11]
  STOOL WEIGHT GRAMS Wet Weight: 985 Grams
  Stool Weight Grams Dry Weight: 77 Grams
Chronic constipation [4]; [12]
  STOOL WEIGHT GRAMS Wet Weight: 997 Grams
  Stool Weight Grams Dry Weight: 77 Grams
Chronic constipation [4]; [13]
  STOOL WEIGHT GRAMS Wet Weight: 806 Grams
  Stool Weight Grams Dry Weight: 65 Grams

Reference: patent EP0103636B1, “USE OF OPIUM ANTAGONISTS FOR THE MANUFACTURE OF MEDICAMENTS FOR CONTROLLING GASTROINTESTINAL DYSMOTILITY” (ROCKEFELLER UNIVERSITY, priority 1982, dated 1983)
